Results as given in ChEMBL document CHEMBL3885881, “DrugMatrix”.

Species: Rattus norvegicus
Test: DrugMatrix - Regimen: Daily Repeat
Type: toxicity, organism-based, Sprague-Dawley
Set-up: regimen Daily Repeat, gender Male, age 6-8 weeks
Conditions: in vivo, po, route oral GAVAGE, vehicle .5 % CMC; for ABSOLUTE BASOPHIL / ABSOLUTE EOSINOPHIL / ABSOLUTE LYMPHOCYTE / ABSOLUTE MONOCYTE / ABSOLUTE SEGMENTED NEUTROPHIL / BASOPHIL / EOSINOPHIL / ERYTHROCYTE COUNT / HEMATOCRIT / HEMOGLOBIN / LEUKOCYTE COUNT / LYMPHOCYTE / MEAN CORPUSCULAR HEMOGLOBIN / MEAN CORPUSCULAR HEMOGLOBIN CONCENTRATION / MEAN CORPUSCULAR VOLUME / MONOCYTE / NEUTROPHIL / NUCLEATED RED BLOOD CELLS / PLATELET COUNT: tissue Blood; for ALANINE AMINOTRANSFERASE / ALBUMIN / ALKALINE PHOSPHATASE / ASPARTATE AMINOTRANSFERASE / BLOOD UREA NITROGEN / CARBON DIOXIDE / CHLORIDE / CHOLESTEROL / CREATINE PHOSPHOKINASE / CREATININE / GLUCOSE / LACTATE DEHYDROGENASE / LIPASE / PHOSPHORUS / POTASSIUM / SODIUM / TOTAL BILIRUBIN / TOTAL PROTEIN / URIC ACID: tissue Plasma
[1] = 200 mg/kg, 120 h, dose level Low, time 5 day
[2] = 2500 mg/kg, 72 h, dose level High, time 3 day
[3] = 2500 mg/kg, 120 h, dose level High, time 5 day

## CCC1=C(C)CN(C(=O)NCCc2ccc(S(=O)(=O)NC(=O)N[C@H]3CC[C@H](C)CC3)cc2)C1=O [GLIMEPIRIDE]
[1]
  ABSOLUTE BASOPHIL: 0 CELLS/uL
  ABSOLUTE EOSINOPHIL: 0 CELLS/uL
  ABSOLUTE LYMPHOCYTE: 12890.33 CELLS/uL
  ABSOLUTE MONOCYTE: 43.33 CELLS/uL
  ABSOLUTE SEGMENTED NEUTROPHIL: 866.33 CELLS/uL
  BASOPHIL: 0%
  EOSINOPHIL: 0%
  ERYTHROCYTE COUNT: 5.84 x10E6/uL
  HEMATOCRIT: 36.5%
  HEMOGLOBIN: 14.63 G/DL
  LEUKOCYTE COUNT: 13.8 x10E3/uL
  LYMPHOCYTE: 93.33%
  MEAN CORPUSCULAR HEMOGLOBIN: 25.03 pg
  MEAN CORPUSCULAR HEMOGLOBIN CONCENTRATION: 40.1 G/DL
  MEAN CORPUSCULAR VOLUME: 62.43 fL
  MONOCYTE: 0.33%
  NEUTROPHIL: 6.33%
  NUCLEATED RED BLOOD CELLS: 0 /100WBC
  PLATELET COUNT: 1124.67 x10E3/uL
  ALANINE AMINOTRANSFERASE: 58.33 u/L
  ALBUMIN: 4.43 G/DL
  ALKALINE PHOSPHATASE: 402 u/L
  ASPARTATE AMINOTRANSFERASE: 81.33 u/L
  BLOOD UREA NITROGEN: 15.67 mg/dL
  CARBON DIOXIDE: 31.67 mmol/L
  CHLORIDE: 101.33 MEQ/L
  CHOLESTEROL: 75 mg/dL
  CREATINE PHOSPHOKINASE: 241.33 u/L
  CREATININE: 0.18 mg/dL
  GLUCOSE: 154 mg/dL
  LACTATE DEHYDROGENASE: 123.67 u/L
  LIPASE: 10 u/L
  PHOSPHORUS: 10.53 mg/dL
  POTASSIUM: 6.31 MEQ/L
  SODIUM: 143.8 MEQ/L
  TOTAL BILIRUBIN: 0.2 mg/dL
  TOTAL PROTEIN: 6.23 G/DL
  URIC ACID: 1.13 mg/dL
[2]
  ABSOLUTE BASOPHIL: 0 CELLS/uL
  ABSOLUTE EOSINOPHIL: 0 CELLS/uL
  ABSOLUTE LYMPHOCYTE: 11733.33 CELLS/uL
  ABSOLUTE MONOCYTE: 88 CELLS/uL
  ABSOLUTE SEGMENTED NEUTROPHIL: 778.67 CELLS/uL
  BASOPHIL: 0%
  EOSINOPHIL: 0%
  ERYTHROCYTE COUNT: 5.59 x10E6/uL
  HEMATOCRIT: 36.03%
  HEMOGLOBIN: 14.23 G/DL
  LEUKOCYTE COUNT: 12.6 x10E3/uL
  LYMPHOCYTE: 92.67%
  MEAN CORPUSCULAR HEMOGLOBIN: 25.47 pg
  MEAN CORPUSCULAR HEMOGLOBIN CONCENTRATION: 39.6 G/DL
  MEAN CORPUSCULAR VOLUME: 64.33 fL
  MONOCYTE: 0.67%
  NEUTROPHIL: 6.67%
  NUCLEATED RED BLOOD CELLS: 0.33 /100WBC
  PLATELET COUNT: 1148 x10E3/uL
  ALANINE AMINOTRANSFERASE: 60.33 u/L
  ALBUMIN: 4.2 G/DL
  ALKALINE PHOSPHATASE: 398.33 u/L
  ASPARTATE AMINOTRANSFERASE: 110 u/L
  BLOOD UREA NITROGEN: 16.67 mg/dL
  CARBON DIOXIDE: 28 mmol/L
  CHLORIDE: 102.67 MEQ/L
  CHOLESTEROL: 61 mg/dL
  CREATINE PHOSPHOKINASE: 802 u/L
  CREATININE: 0.14 mg/dL
  GLUCOSE: 165.67 mg/dL
  LACTATE DEHYDROGENASE: 190 u/L
  LIPASE: 10.33 u/L
  PHOSPHORUS: 10.87 mg/dL
  POTASSIUM: 5.99 MEQ/L
  SODIUM: 143.87 MEQ/L
  TOTAL BILIRUBIN: 0.1 mg/dL
  TOTAL PROTEIN: 5.73 G/DL
  URIC ACID: 1.47 mg/dL
[3]
  ABSOLUTE BASOPHIL: 0 CELLS/uL
  ABSOLUTE EOSINOPHIL: 80.67 CELLS/uL
  ABSOLUTE LYMPHOCYTE: 11006.67 CELLS/uL
  ABSOLUTE MONOCYTE: 128 CELLS/uL
  ABSOLUTE SEGMENTED NEUTROPHIL: 1118 CELLS/uL
  BASOPHIL: 0%
  EOSINOPHIL: 0.67%
  ERYTHROCYTE COUNT: 5.89 x10E6/uL
  HEMATOCRIT: 36.97%
  HEMOGLOBIN: 14.8 G/DL
  LEUKOCYTE COUNT: 12.33 x10E3/uL
  LYMPHOCYTE: 89.33%
  MEAN CORPUSCULAR HEMOGLOBIN: 25.13 pg
  MEAN CORPUSCULAR HEMOGLOBIN CONCENTRATION: 40.07 G/DL
  MEAN CORPUSCULAR VOLUME: 62.73 fL
  MONOCYTE: 1%
  NEUTROPHIL: 9%
  NUCLEATED RED BLOOD CELLS: 0 /100WBC
  PLATELET COUNT: 1082.67 x10E3/uL
  ALANINE AMINOTRANSFERASE: 74 u/L
  ALBUMIN: 4.47 G/DL
  ALKALINE PHOSPHATASE: 390 u/L
  ASPARTATE AMINOTRANSFERASE: 96.33 u/L
  BLOOD UREA NITROGEN: 19 mg/dL
  CARBON DIOXIDE: 28.67 mmol/L
  CHLORIDE: 101.33 MEQ/L
  CHOLESTEROL: 72 mg/dL
  CREATINE PHOSPHOKINASE: 380.67 u/L
  CREATININE: 0.18 mg/dL
  GLUCOSE: 132.33 mg/dL
  LACTATE DEHYDROGENASE: 150.33 u/L
  LIPASE: 8 u/L
  PHOSPHORUS: 11.9 mg/dL
  POTASSIUM: 5.72 MEQ/L
  SODIUM: 145.67 MEQ/L
  TOTAL BILIRUBIN: 0.23 mg/dL
  TOTAL PROTEIN: 6.3 G/DL
  URIC ACID: 1.5 mg/dL
